Results: ChEMBL document CHEMBL1201862, “PubChem BioAssay data set” (2004)
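How tested: cells in 96-well plates exposed to compound for 48 hours at five concentrations. GI50: concentration for 50% inhibition of growth.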 Activity calls are given as the source filed them. Cut-off read from the data, not from the text of the source: active = GI50 up to about 1.1 µM and inactive = higher.

How the values were obtained:
Test in all cases: growth of human tumour cells (NCI), 48 h
OVCAR-5 = system: OVCAR-5
ACHN = system: ACHN
KM12 = system: KM12
SR = system: SR
SK-MEL-28 = system: SK-MEL-28
Malme-3M = system: Malme-3M
MCF7 = system: MCF7
PC-3 = system: PC-3
BT-549 = system: BT-549
M14 = system: M14
HOP-92 = system: HOP-92
TK-10 = system: TK-10
U-251 = system: U-251
MDA-N = system: MDA-N
UACC-62 = system: UACC-62
CAKI-1 = system: CAKI-1
UO-31 = system: UO-31
HCC 2998 = system: HCC 2998
SK-OV-3 = system: SK-OV-3
SNB-75 = system: SNB-75

Compound | GI50 (OVCAR-5) | GI50 (ACHN) | GI50 (KM12) | GI50 (SR) | GI50 (SK-MEL-28) | GI50 (Malme-3M) | GI50 (MCF7) | GI50 (PC-3) | GI50 (BT-549) | GI50 (M14) | GI50 (HOP-92) | GI50 (TK-10) | GI50 (U-251) | GI50 (MDA-N) | GI50 (UACC-62) | GI50 (CAKI-1) | GI50 (UO-31) | GI50 (HCC 2998) | GI50 (SK-OV-3) | GI50 (SNB-75)
CC(C)CC1c2[nH]c3ccccc3c2C[C@H]2C(=O)NC(CCCCNC(=O)OC(C)(C)C)C(=O)N12 (some centres undefined) | 61.5 µM (inactive) | 29 µM (inactive) | 17 µM (inactive) | 11.9 µM (inactive) | 65.6 µM (inactive) | 31.6 µM (inactive) | 34.3 µM (inactive) | 17.9 µM (inactive) | 25.2 µM (inactive) | 35.3 µM (inactive) | 31 µM (inactive) | 31.3 µM (inactive) | 24.7 µM (inactive) | 37.5 µM (inactive) | 27 µM (inactive) | 37.3 µM (inactive) | 38.1 µM (inactive) | – | – | –
O=C(O)CC1OCC=C2CN3CCC45C6=CC(=O)C(O)=C([N+](=O)[O-])C6=NC4C1C2CC35 (centres undefined) | > 100 µM (inactive) | > 100 µM (inactive) | > 100 µM (inactive) | – | > 100 µM (inactive) | > 100 µM (inactive) | > 100 µM (inactive) | > 100 µM (inactive) | > 100 µM (inactive) | > 100 µM (inactive) | > 100 µM (inactive) | > 100 µM (inactive) | > 100 µM (inactive) | 44.7 µM (inactive) | 34.4 µM (inactive) | > 100 µM (inactive) | > 100 µM (inactive) | > 100 µM (inactive) | > 100 µM (inactive) | > 100 µM (inactive)
CCN(CC)C1Oc2cc3c(cc2C(c2cccc(OC)c2OC)C1C)OCO3 (centres undefined) | 13 µM (inactive) | 3.22 µM (inactive) | 4.9 µM (inactive) | 0.729 µM (active) | 14.9 µM (inactive) | 8.51 µM (inactive) | 5.08 µM (inactive) | 4.03 µM (inactive) | 3.4 µM (inactive) | 12.1 µM (inactive) | – | 5.77 µM (inactive) | 4.33 µM (inactive) | 8.59 µM (inactive) | 11.4 µM (inactive) | 2.82 µM (inactive) | 4.21 µM (inactive) | 11.3 µM (inactive) | 4.53 µM (inactive) | 6.03 µM (inactive)
CCOC(=O)CC1Nc2ccccc2C12CCc1c([nH]c3ccccc13)C2C(=O)OCC (centres undefined) | > 100 µM (inactive) | 28.6 µM (inactive) | 14.8 µM (inactive) | 17.3 µM (inactive) | 35.1 µM (inactive) | 10.5 µM (inactive) | 13.1 µM (inactive) | 53.2 µM (inactive) | > 100 µM (inactive) | 30.5 µM (inactive) | – | 32.5 µM (inactive) | 48.5 µM (inactive) | 4.65 µM (inactive) | 9.62 µM (inactive) | 6.58 µM (inactive) | 36.1 µM (inactive) | 84.9 µM (inactive) | 6.4 µM (inactive) | 0.0728 µM (active)
CCN(CC)CCN1C(=O)c2c(c(-c3ccccc3)c3ccccc3c2-c2ccccc2)C1=O | > 100 µM (inactive) | > 100 µM (inactive) | > 100 µM (inactive) | – | – | > 100 µM (inactive) | > 100 µM (inactive) | > 100 µM (inactive) | > 100 µM (inactive) | > 100 µM (inactive) | 36.8 µM (inactive) | > 100 µM (inactive) | 81.7 µM (inactive) | > 100 µM (inactive) | > 100 µM (inactive) | > 100 µM (inactive) | – | > 100 µM (inactive) | > 100 µM (inactive) | > 100 µM (inactive)
C1=Nc2sc3c(c2C2=NCCN12)CCCC3 | 18.2 µM (inactive) | 17.1 µM (inactive) | 17.2 µM (inactive) | 21.2 µM (inactive) | 20.7 µM (inactive) | 16.9 µM (inactive) | 18.3 µM (inactive) | 16.7 µM (inactive) | 15.2 µM (inactive) | – | – | 16.6 µM (inactive) | 21.4 µM (inactive) | 20.1 µM (inactive) | 15.4 µM (inactive) | 17.4 µM (inactive) | 16.3 µM (inactive) | 11.8 µM (inactive) | – | 18.9 µM (inactive)
O=[N+]([O-])c1ccc2nc3ccc([N+](=O)[O-])cn3c2c1 | 32.5 µM (inactive) | > 100 µM (inactive) | > 100 µM (inactive) | > 100 µM (inactive) | > 100 µM (inactive) | 92.5 µM (inactive) | 63.7 µM (inactive) | > 100 µM (inactive) | > 100 µM (inactive) | > 100 µM (inactive) | > 100 µM (inactive) | 98.6 µM (inactive) | 36 µM (inactive) | > 100 µM (inactive) | 86.3 µM (inactive) | 33 µM (inactive) | 29.9 µM (inactive) | – | > 100 µM (inactive) | 43.1 µM (inactive)
CN(Cc1cnc2nc(N)nc(N)c2n1)c1ccc(C(=O)NC2CCCCC2)cc1 | 74.3 µM (inactive) | 23.3 µM (inactive) | 26.9 µM (inactive) | 33.2 µM (inactive) | – | 20.9 µM (inactive) | 29 µM (inactive) | 7.64 µM (inactive) | 23.2 µM (inactive) | 10.6 µM (inactive) | – | 51.3 µM (inactive) | 11.8 µM (inactive) | 7.69 µM (inactive) | 8.2 µM (inactive) | 63.7 µM (inactive) | 87.3 µM (inactive) | – | 54.6 µM (inactive) | 25.2 µM (inactive)
